Laboratory results: patent US20240316038A1, “APOL1 INHIBITORS AND METHODS OF USE” (Maze Therapeutics, Inc., priority 2021, published 2024)

How the values were obtained:
[1] = molecular target: T1, APOL1 G2 (Homo sapiens, UniProt O14791, DEL388-389); experiment: APOL1 calcium transport inhibition assay (GCaMP6f calcium influx, FLIPR) in HEK T-REx/GCaMP6f/APOL1 G2 K6.3 cells; format: cell-based; conditions: inhibition of APOL1-mediated calcium influx; geometric mean of at least 2 assay runs, † = single assay run (technical duplicate)
T1 construct: expressed in transfected cells; host or cells: HEK293 T-REx clonal lines: HEK T-REx/GCaMP6f/APOL1 G2 K6.3 in A1, HEK293/T-REx APOL1 G2/clone #2 in A2
T1 sequence (O14791 with tags, fused parts or gaps DEL388-389): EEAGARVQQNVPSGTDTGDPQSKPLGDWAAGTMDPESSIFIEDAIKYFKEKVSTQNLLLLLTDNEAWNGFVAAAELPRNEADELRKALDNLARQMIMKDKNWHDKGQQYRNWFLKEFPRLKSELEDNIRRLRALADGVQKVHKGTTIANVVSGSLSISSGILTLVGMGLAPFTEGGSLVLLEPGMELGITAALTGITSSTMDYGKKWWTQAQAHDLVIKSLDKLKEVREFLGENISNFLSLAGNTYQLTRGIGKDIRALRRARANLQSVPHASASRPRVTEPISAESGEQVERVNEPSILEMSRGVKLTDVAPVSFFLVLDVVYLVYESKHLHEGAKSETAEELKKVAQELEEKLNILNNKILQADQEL
Summary of the method: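 HEK293 cells stably expressing GCaMP6f, APOL1 G2 induced 6 h with doxycycline (20 ng/mL added), then washed into Ca2+-free Tyrode's buffer pH 7.4. Compounds (8-point dose response) preincubated 10 min at room temperature, then Ca2+ injected to 5 mM final and influx read on FLIPR. AC50 reported as geometric mean of runs.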

[2] = molecular target: T1, APOL1 G2; experiment: Rescue of HEK293 cell death caused by overexpression of APOL1 (CellTiter-Glo luminescence), HEK293/T-REx APOL1 G2/clone #2; format: cell-based; conditions: reversal of cell death caused by overexpression of APOL1; geometric mean of at least 2 assay runs, † = single assay run (technical duplicate)
Summary of the method: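 HEK293/T-REx APOL1 G2 clone #2 cells, 5,000/well, induced with 6 ng/mL doxycycline and exposed to compound (8-point, 3-fold dilutions, 0.5% DMSO) for 17 h at 37 °C. Viability by CellTiter-Glo luminescence; EC50 for reversal of APOL1-induced death from a four-parameter logistic fit, geometric mean of ≥2 runs.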

AC50 [1] [µM] | Structure (SMILES) | EC50 [2] [µM]
0.108 | C[C@@H]1CN(CCc2cc(Br)cc(C#N)c2)C[C@H]1COc1ccc(S(C)(=O)=O)cc1 [Compound 196, 3-bromo-5-{2-[(3S,4S)-3-[(4-methanesulfonylphenoxy)methyl]-4-methylpyrrolidin-1-yl]ethyl}benzonitrile] | 0.11
1.23 | CC(CN1C[C@@H](COc2ccc(S(C)(=O)=O)cc2)C[C@H]1C)c1cc(Cl)cc(C#N)c1 (single isomer, unassigned) [Compound 142, 3-chloro-5-[(2R or 2S)-1-[(2R, 4S)-4-[(4-meth-anesulfonyl-phenoxy)meth-yl]-2-methyl-pyrrolidin-1-yl]-propan-2-yl]-benzonitrile] | 0.131
2.35 | C[C@@H]1CN(CC(O)c2cccc(Cl)c2)C[C@H]1COc1ccc(S(C)(=O)=O)cc1 (single isomer, unassigned) [Compound 125, (1S or 1R)-1-(3-chlorophenyl)-2-[(3S,4S)-3-[(4-methanesulfonylphenoxy)methyl]-4-methylpyrrolidin-1-yl]ethan-1-ol] | 1.55
> 10 | CC1CC(COc2ccc(S(C)(=O)=O)cc2)CN1CCc1cccc(C#N)c1 (single isomer, unassigned) [Compound 139, 3-{2-[(2S,4R or 2R,4S or 2S,4S or 2R,4R)-4-[(4-methanesulfon-ylphenoxy)meth-yl]-2-methyl-pyrrolidin-1-yl]-ethyl}benzo-nitrile] | 3.23
0.423 | Cc1c(C#N)cc(Cl)cc1CCN1C[C@@H](COc2ccc(S(C)(=O)=O)cc2)[C@H](C)C1 [Compound 144, 5-chloro-3-{2-[(3S,4S)-3-[(4-methanesulfon-ylphenoxy)meth-yl]-4-methyl-pyrrolidin-1-yl]-ethyl}-2-methyl-benzonitrile] | 0.256
1.29 | CN(c1ccc(OC[C@H](O)CN2CCC(c3cccc(Cl)c3)C2)cc1)S(C)(=O)=O (single isomer, unassigned) [Compound 79, N-(4-((R)-3-((R) or (S)-3-(3-chlorophenyl)pyrro-lidin-1-yl)-2-hydroxypropoxy)phe-nyl)-N-methylmethanesulfon-amide] | > 13.7
5.73 | CS(=O)(=O)c1ccc(OC[C@H]2CCCN(CC(O)c3cccc(Cl)c3)C2)cc1 (single isomer, unassigned) [Compound 18, (R) or (S)-1-(3-chlorophenyl)-2-((S)-3-((4-(methylsulfonyl)phenoxy)methyl)piperidin-1-yl)ethan-1-ol] | 6.32
0.434 | C[C@H]1CN(CCc2cccc(Cl)c2)C[C@@H]1COc1ccc(N(C)S(C)(=O)=O)cc1 (single isomer, unassigned) [Compound 47, N-(4-(((3R,4R) or (3S,4S)-1-(3-chlorophenethyl)-4-methylpyrrolidin-3-yl)methoxy)phenyl)-N-methylmethanesulfonamide] | 0.516
0.731 | CS(=O)(=O)c1ccc(OCC2CN(CCc3cccc(Cl)c3)CCC2O)cc1 (single isomer, unassigned) [Compound 32, (3S,4S) or (3R,4S) or (3S,4R) or (3R,4R)-1-(3-chlorophen-ethyl)-3-((4-(methylsulf-onyl)phenoxy)methyl) piperidin-4-ol] | 5.77
1.62 | CS(=O)(=O)c1ccc(OC[C@H](O)CNCCc2cccc(Cl)c2)cc1 [Compound 94, (R)-1-((3-chlorophenethyl)a-mino)-3-(4-(methylsulfonyl)phe-noxy)propan-2-ol] | 8.37
0.515 | CN(c1ccc(OC[C@@H](O)CNCCc2cc(Cl)ccc2Cl)cc1)S(C)(=O)=O [Compound 90, (S)-N-(4-(3-((2,5-dichlorophenethyl)amino)-2-hydroxypropoxy)phe-nyl)-N-methylmethanesulfon-amide] | 1.46
14.2 | COC1CCN(CCc2cccc(Cl)c2)CC1COc1ccc(S(C)(=O)=O)cc1 (single isomer, unassigned) [Compound 36, (3R,4R) or (3S,4S) or (3R,4S) or (3S,4R)-1-(3-chlorophenethyl)-4-methoxy-3-((4-(methylsulfonyl)phenoxy)methyl)piperidine] | > 30
0.148 | C[C@@H]1CN(CC(O)c2cccc(Cl)c2)C[C@H]1COc1ccc(S(C)(=O)=O)cc1 (single isomer, unassigned) [Compound 124, (1R or 1S)-1-(3-chlorophenyl)-2-[(3S,4S)-3-[(4-methanesulfonylphenoxy)methyl]-4-methylpyrrolidin-1-yl]ethan-1-ol] | 0.242
< 0.382 | CN(c1ccc(OCC(C)(O)CNCCc2cccc(Cl)c2)cc1)S(C)(=O)=O (single isomer, unassigned) [Compound 104, (S) or (R)-N-(4-(3-((3-chlorophenethyl)a-mino)-2-hydroxy-2-methylpropoxy)phe-nyl)-N-methylmethanesulfon-amide] | 1.86
0.721 | C[C@@H]1CN(CCc2cccc(Cl)c2)C[C@@H]1COc1ccc(S(C)(=O)=O)cc1 (racemic) [Compound 150, rac-cis-1-[2-(3-chlorophenyl)-ethyl]-3-[(4-methanesulfon-ylphenoxy)meth-yl]-4-methyl-pyrrolidine] | 1.47
10.9 | CN(c1ccc(OCC(C)(O)CNCCc2cccc(Cl)c2)cc1)S(C)(=O)=O (single isomer, unassigned) [Compound 103, (R) or (S)-N-(4-(3-((3-chlorophenethyl)a-mino)-2-hydroxy-2-methylpropxy)phe-nyl)-N-methylmethanesulfon-amide] | > 30
0.51 | C[C@@H]1C[C@H](COc2ccc(S(C)(=O)=O)cc2)CN1CCc1cc(C#N)cc(C#N)c1 [Compound 132] | 0.0437
0.258 | CN(c1ccc(OC[C@@H](O)CN[C@H]2C[C@H](c3cccc(Cl)c3)C2)cc1)S(C)(=O)=O [Compound 65, N-(4-((S)-3-((trans-3-(3-chlorophenyl)cyclo-butyl)amino)-2-hydroxypropoxy)phe-nyl)-N-methylmethanesulfon-amide] | 0.955
3.74 | C[C@@]1(O)CN(CCc2cccc(Cl)c2)C[C@@H]1COc1ccc(S(C)(=O)=O)cc1 (single isomer, unassigned) [Compound 209, (3R,4S or 3S,4R)-1-[2-(3-chlorophenyl)ethyl]-4-[(4-methanesulfonylphenoxy)methyl]-3-methylpyrrolidin-3-ol pyrrolidine-3-ol] | > 19.5
1.02 | CS(=O)(=O)c1ccc(OCC2CN(CCc3cccc(Cl)c3)CCC2O)cc1 (single isomer, unassigned) [Compound 31, (3R,4R) or (3S,4S) or (3R,4S) or (3S,4R)-1-(3-chlorophen-ethyl)-3-((4-(methylsulf-onyl)phenoxy)methyl) piperidin-4-ol] | > 7.89

Structure (SMILES) | AC50 [1] [µM] | EC50 [2] [µM]
CN(c1ccc(O[C@H]2C[C@H](NCCc3cccc(Cl)c3)C2)cc1)S(C)(=O)=O [Compound 48, trans-N-(4-(3-((3-chlorophenethyl)amino)cyclobutoxy)phenyl)-N-methylmethanesulfonamide] | 1.92 | 2.54
